Laboratory results published in ChEMBL document CHEMBL4732263 (Bioorg Med Chem, 2021).
≈ marks a conversion by molar mass, not a printed value.

Assays:
[1] = Clearance in Sprague-Dawley rat renal blood at 3.9 mg/kg, iv up to 24 hrs by LC-MS analysis; type: ADME, organism-based; settings: whole blood
[2] = Plasma clearance in Balb/C mouse at 2.6 mg/kg, iv up to 24 hrs by LC-MS analysis; type: ADME, organism-based
in vitro [3] = settings: mouse, liver microsomes
in vivo = settings: Balb/C, mouse, po, at 1.9 to 3.5 mg/kg
[4] = Volume of distribution at steady state in Balb/C mouse plasma at 2.6 mg/kg, iv up to 24 hrs by LC-MS analysis; type: ADME, organism-based; settings: read-out: Vdss
in vitro [5] = settings: human, Caco-2
[6] = Volume of distribution at steady state in Sprague-Dawley rat plasma at 3.9 mg/kg, iv up to 24 hrs by LC-MS analysis; type: ADME, organism-based; settings: read-out: Vdss
[7] = Half life in Sprague-Dawley rat at 3.9 mg/kg, iv up to 24 hrs by LC-MS analysis; type: ADME, organism-based; settings: in vivo
in vitro [8] = settings: Balb/C, mouse, plasma; at 1 µg/mL
[9] = biological target: Voltage-gated inwardly rectifying potassium channel KCNH2 (Homo sapiens, UniProt Q12809)
Chain of Voltage-gated inwardly rectifying potassium channel KCNH2 (Q12809 whole entry): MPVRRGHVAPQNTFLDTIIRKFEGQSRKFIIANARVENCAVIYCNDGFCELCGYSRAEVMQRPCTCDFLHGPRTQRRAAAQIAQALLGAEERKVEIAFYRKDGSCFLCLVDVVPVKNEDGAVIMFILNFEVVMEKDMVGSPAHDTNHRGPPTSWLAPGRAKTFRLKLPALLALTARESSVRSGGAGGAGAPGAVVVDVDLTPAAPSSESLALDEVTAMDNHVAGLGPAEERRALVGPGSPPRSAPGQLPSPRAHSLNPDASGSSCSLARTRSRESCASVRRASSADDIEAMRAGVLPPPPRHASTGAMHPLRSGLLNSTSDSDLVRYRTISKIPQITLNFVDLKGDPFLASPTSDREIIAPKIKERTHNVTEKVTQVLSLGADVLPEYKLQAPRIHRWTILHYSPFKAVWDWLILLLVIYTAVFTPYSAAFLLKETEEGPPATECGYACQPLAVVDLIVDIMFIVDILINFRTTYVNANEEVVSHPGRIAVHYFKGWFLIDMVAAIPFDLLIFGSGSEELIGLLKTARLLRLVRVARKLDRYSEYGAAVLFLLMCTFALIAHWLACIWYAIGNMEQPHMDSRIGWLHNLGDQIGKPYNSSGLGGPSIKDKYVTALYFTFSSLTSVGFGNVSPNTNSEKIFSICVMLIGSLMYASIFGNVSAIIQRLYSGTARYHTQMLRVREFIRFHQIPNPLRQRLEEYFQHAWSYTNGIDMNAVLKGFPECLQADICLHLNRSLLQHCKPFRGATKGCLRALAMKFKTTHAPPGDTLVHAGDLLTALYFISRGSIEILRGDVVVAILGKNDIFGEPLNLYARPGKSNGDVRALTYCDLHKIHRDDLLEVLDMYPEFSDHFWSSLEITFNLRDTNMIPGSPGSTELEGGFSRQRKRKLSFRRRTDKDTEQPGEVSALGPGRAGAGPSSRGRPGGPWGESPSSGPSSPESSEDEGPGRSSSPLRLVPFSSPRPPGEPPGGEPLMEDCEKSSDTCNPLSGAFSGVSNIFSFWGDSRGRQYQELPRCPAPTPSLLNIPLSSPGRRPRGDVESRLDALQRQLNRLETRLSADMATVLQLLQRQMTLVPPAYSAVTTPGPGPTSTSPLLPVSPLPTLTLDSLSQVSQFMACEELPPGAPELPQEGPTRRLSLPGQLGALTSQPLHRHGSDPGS

[10] = Ratio of drug level in blood to plasma in Sprague-Dawley rat at 3.9 mg/kg, iv up to 24 hrs by LC-MS analysis by LC-MS analysis; type: ADME, organism-based; settings: whole blood and plasma
[11] = biological target: Sodium channel protein type 5 subunit alpha (Homo sapiens, UniProt Q14524)
Chain of Sodium channel protein type 5 subunit alpha (Q14524 whole entry): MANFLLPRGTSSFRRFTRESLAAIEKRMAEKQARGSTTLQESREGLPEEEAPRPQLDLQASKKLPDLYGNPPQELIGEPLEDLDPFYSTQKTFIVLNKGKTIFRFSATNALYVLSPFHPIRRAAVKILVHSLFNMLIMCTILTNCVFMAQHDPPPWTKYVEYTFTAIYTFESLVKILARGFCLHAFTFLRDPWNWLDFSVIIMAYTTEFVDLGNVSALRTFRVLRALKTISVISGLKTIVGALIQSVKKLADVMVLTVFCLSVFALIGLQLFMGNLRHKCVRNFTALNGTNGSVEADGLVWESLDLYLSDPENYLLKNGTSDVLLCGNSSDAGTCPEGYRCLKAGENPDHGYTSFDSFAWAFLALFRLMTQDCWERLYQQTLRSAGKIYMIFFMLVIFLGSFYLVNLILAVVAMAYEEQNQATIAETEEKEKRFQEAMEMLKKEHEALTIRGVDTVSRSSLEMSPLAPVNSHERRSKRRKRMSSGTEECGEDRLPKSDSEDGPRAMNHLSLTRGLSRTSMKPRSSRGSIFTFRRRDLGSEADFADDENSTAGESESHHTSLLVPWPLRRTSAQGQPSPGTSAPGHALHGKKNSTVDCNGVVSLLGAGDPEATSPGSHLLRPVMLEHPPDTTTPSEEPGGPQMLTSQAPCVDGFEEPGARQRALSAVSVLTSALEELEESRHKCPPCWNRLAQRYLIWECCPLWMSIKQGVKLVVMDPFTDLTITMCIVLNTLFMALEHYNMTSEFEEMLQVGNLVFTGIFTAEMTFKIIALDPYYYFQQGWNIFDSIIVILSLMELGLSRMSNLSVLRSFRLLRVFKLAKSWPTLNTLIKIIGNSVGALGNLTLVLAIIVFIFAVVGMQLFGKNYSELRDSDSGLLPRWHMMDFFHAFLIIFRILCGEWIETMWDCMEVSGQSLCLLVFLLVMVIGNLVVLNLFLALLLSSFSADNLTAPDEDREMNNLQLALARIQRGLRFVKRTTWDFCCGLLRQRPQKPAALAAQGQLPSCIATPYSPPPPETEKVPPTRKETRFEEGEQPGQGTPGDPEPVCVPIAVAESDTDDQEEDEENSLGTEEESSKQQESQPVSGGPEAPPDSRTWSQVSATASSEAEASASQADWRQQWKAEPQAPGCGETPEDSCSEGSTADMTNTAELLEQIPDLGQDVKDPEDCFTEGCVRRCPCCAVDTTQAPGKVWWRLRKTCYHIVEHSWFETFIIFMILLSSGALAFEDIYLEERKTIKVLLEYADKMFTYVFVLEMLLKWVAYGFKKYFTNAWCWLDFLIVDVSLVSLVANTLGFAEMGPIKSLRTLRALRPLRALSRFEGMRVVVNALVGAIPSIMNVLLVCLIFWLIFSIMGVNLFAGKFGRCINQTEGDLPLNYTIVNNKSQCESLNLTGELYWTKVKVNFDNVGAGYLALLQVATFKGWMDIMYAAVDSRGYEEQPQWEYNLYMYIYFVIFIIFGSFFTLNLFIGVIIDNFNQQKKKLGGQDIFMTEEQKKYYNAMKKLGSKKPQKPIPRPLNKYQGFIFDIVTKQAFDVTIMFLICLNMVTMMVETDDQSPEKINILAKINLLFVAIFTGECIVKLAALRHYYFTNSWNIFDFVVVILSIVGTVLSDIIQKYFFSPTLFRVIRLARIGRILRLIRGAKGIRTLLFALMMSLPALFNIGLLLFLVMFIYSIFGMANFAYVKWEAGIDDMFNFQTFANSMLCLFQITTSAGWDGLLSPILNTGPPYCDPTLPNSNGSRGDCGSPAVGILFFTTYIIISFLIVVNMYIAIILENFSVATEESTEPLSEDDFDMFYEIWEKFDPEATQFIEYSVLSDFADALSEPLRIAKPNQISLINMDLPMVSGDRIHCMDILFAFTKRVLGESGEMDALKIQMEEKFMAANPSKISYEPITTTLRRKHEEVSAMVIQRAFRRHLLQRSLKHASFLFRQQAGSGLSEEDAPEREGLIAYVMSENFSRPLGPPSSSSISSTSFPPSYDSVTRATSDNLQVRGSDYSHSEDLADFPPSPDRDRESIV

[12] = Ratio of drug level in blood to plasma in Balb/C mouse plasma at 2.6 mg/kg, iv up to 24 hrs by LC-MS analysis; type: ADME, organism-based; settings: blood and plasma
in vitro [13] = settings: human, Caco-2; remark: listed apart in the source
cells = settings: Homo sapiens, HEK293, 10 min
[14] = Drug excretion in Sprague-Dawley rat urine at 3.9 mg/kg, iv up to 24 hrs by LC-MS analysis; type: ADME, organism-based; settings: read-out: Drug excretion
[15] = octanol/water, pH 7.4
[16] = AUC(0 to infinity) in Sprague-Dawley rat plasma at 3.9 mg/kg, iv up to 24 hrs by LC-MS analysis; type: ADME, organism-based; set-up: route intravenous, dose 3.9 mg/kg, time <=24
physchem [17] = settings: HCl, pH 2, pH 2
[18] = mouse, blood, 2 h; at 1 µg/mL
[19] = Apparent half life in Balb/C mouse at 2.6 mg/kg, iv up to 24 hrs by LC-MS analysis; type: ADME, organism-based; settings: in vivo, read-out: t1/2(app) (converted)
in vitro [20] = settings: human, Caco-2; remark: listed apart in the source
[21] = mouse, microsomes, 1 h, 1 µM
[22] = Clearance in Balb/C mouse blood at 2.6 mg/kg, iv up to 24 hrs by LC-MS analysis; type: ADME, organism-based; settings: whole blood
in vitro [23] = settings: Balb/C, mouse, plasma; at 1 µg/mL; remark: listed apart in the source
[24] = AUC(0 to infinity) in Balb/C mouse plasma at 2.6 mg/kg, iv up to 24 hrs by LC-MS analysis; type: ADME, organism-based; set-up: route intravenous, dose 2.6 mg/kg, time <=24
[25] = Clearance in Sprague-Dawley rat blood at 3.9 mg/kg, iv up to 24 hrs by LC-MS analysis; type: ADME, organism-based; settings: whole blood
[26] = Plasma clearance in Sprague-Dawley rat at 3.9 mg/kg, iv up to 24 hrs by LC-MS analysis; type: ADME, organism-based
[27] = Volume of distribution at steady state in Balb/C mouse blood at 2.6 mg/kg, iv up to 24 hrs by LC-MS analysis; type: ADME, organism-based; settings: whole blood, read-out: Vdss
[28] = Drug metabolism in Sprague-Dawley rat at 3.9 mg/kg, iv by LC-MS analysis; type: ADME, organism-based; settings: in vivo
in vitro [29] = settings: human, Caco-2; remark: listed apart in the source
in vitro [30] = settings: human, liver microsomes
in vitro [31] = settings: mouse, liver microsomes; remark: listed apart in the source
in vitro [32] = settings: human, Caco-2; remark: listed apart in the source
[33] = Volume of distribution at steady state in Sprague-Dawley rat blood at 3.9 mg/kg, iv up to 24 hrs by LC-MS analysis; type: ADME, organism-based; settings: whole blood, read-out: Vdss
[34] = human, microsomes, 1 h, 1 µM
in vitro [35] = settings: human, liver microsomes; remark: listed apart in the source
physchem [36] = settings: PBS, pH 6.5, pH 6.5
[37] = AUC(0 to infinity) in Balb/C mouse plasma at 2.5 mg/kg, iv up to 24 hrs by LC-MS analysis; type: ADME, organism-based; set-up: route intravenous, dose 2.5 mg/kg, time <=24
[38] = Apparent half life in Balb/C mouse at 2.5 mg/kg, iv up to 24 hrs by LC-MS analysis; type: ADME, organism-based; settings: in vivo, read-out: t1/2(app) (converted)
[39] = Plasma clearance in Balb/C mouse at 2.5 mg/kg, iv up to 24 hrs by LC-MS analysis; type: ADME, organism-based
[40] = Volume of distribution at steady state in Sprague-Dawley rat plasma at 2.5 mg/kg, iv up to 24 hrs by LC-MS analysis; type: ADME, organism-based; settings: read-out: Vdss
[41] = Volume of distribution at steady state in Balb/C mouse blood at 2.5 mg/kg, iv up to 24 hrs by LC-MS analysis; type: ADME, organism-based; settings: whole blood, read-out: Vdss
[42] = Clearance in Sprague-Dawley rat blood at 2.5 mg/kg, iv up to 24 hrs by LC-MS analysis; type: ADME, organism-based; settings: whole blood
[43] = Ratio of drug level in blood to plasma in Balb/C mouse plasma at 2.5 mg/kg, iv up to 24 hrs by LC-MS analysis; type: ADME, organism-based; settings: whole blood and plasma
[44] = AUC(0 to infinity) in Sprague-Dawley rat plasma at 2.5 mg/kg, iv up to 24 hrs by LC-MS analysis; type: ADME, organism-based; set-up: route intravenous, dose 2.5 mg/kg, time <=24
[45] = Volume of distribution at steady state in Balb/C mouse plasma at 2.5 mg/kg, iv up to 24 hrs by LC-MS analysis; type: ADME, organism-based; settings: read-out: Vdss
[46] = Clearance in Balb/C mouse blood at 2.5 mg/kg, iv up to 24 hrs by LC-MS analysis; type: ADME, organism-based; settings: whole blood
[47] = Ratio of drug level in blood to plasma in Sprague-Dawley rat at 2.5 mg/kg, iv up to 24 hrs by LC-MS analysis by LC-MS analysis; type: ADME, organism-based; settings: blood and plasma
[48] = Drug metabolism in Sprague-Dawley rat assessed amiloride formation at 2.5 mg/kg, iv after 4.8 mins by LC-MS analysis; type: ADME, organism-based; settings: in vivo, 0.08 h
[49] = Clearance in Sprague-Dawley rat renal blood at 2.5 mg/kg, iv up to 24 hrs by LC-MS analysis; type: ADME, organism-based; settings: whole blood
[50] = Half life in Sprague-Dawley rat at 2.5 mg/kg, iv up to 24 hrs by LC-MS analysis; type: ADME, organism-based; settings: in vivo
[51] = Plasma clearance in Sprague-Dawley rat at 2.5 mg/kg, iv up to 24 hrs by LC-MS analysis; type: ADME, organism-based
[52] = Volume of distribution at steady state in Sprague-Dawley rat blood at 2.5 mg/kg, iv up to 24 hrs by LC-MS analysis; type: ADME, organism-based; settings: whole blood, read-out: Vdss
[53] = Drug excretion in Sprague-Dawley rat urine at 2.5 mg/kg, iv up to 24 hrs by LC-MS analysis; type: ADME, organism-based; settings: read-out: Drug excretion

Compound	microsomal CLint at 1 h, 1 µM (in vitro [3]) [µL/min/mg]	bioavailability at 24 h (in vivo) [%]	Papp B→A at 2 h, 20 µM (in vitro [5]) [×10⁻⁶ cm/s]	metabolised at 4 h, 1 ug/ml (in vitro [8]) [%]	IC50 [9] [µM]	IC50 [11] [µM]	Papp A→B at 2 h, 20 µM (in vitro [13]) [×10⁻⁶ cm/s]	IC50 (cells) [µM]	logD [15]	solubility kinetic (physchem [17]) [µg/mL]	Stabilty [18]	recovery at 2 h, 20 µM (in vitro [20]) [%]	CL free [21] [µL/min/mg]	fraction unbound at […], 1 ug/ml (in vitro [23])	efflux ratio at 2 h, 20 µM (in vitro [29])	half-life at 1 h, 1 µM (in vitro [30]) [h]	half-life at 1 h, 1 µM (in vitro [31]) [h]	recovery at 2 h, 20 µM (in vitro [32]) [%]	CL free [34] [µL/min/mg]	microsomal CLint at 1 h, 1 µM (in vitro [35]) [µL/min/mg]	other results
N=C(N)NC(=O)c1nc(-c2cc3ccccc3o2)c(N2CCCCCC2)nc1N	73	< 5	12	< 6	< 3	< 3	0.3	< 3	5.1	12.5 (≈ 31.8 µM)	Unstable	76	888	0.02	40	1.13	0.4	29	888	26	CL renal at 24 h [1]: 0.01 mL/min/kg; clearance [2]: 71 mL/min/kg; Vd [4]: 2.3 L/kg; Vd [6]: 12.4 L/kg; half-life [7]: 7 h; blood plasma ratio at 24 h [10]: 1.4; blood plasma ratio at 24 h [12]: 1.4; dose excreted at 24 h [14]: 0.02%; AUC(0-inf) [16]: 2.9 µM·h; half-life [19]: 1.7 h; clearance [22]: 53 mL/min/kg; AUC(0-inf) [24]: 1.6 µM·h; clearance [25]: 39.5 mL/min/kg; clearance [26]: 56.9 mL/min/kg; Vd [27]: 1.7 L/kg; Drug metabolism [28]: Metabolite_Notdetected; Vd [33]: 8.6 L/kg; solubility kinetic (physchem [36]): 1.6 µg/mL (≈ 4.07 µM)
N=C(N)NC(=O)c1nc(Cl)c(N2CCCCCC2)nc1N [N,N-HEXAMETHYLENEAMILORIDE]	726	4.5	56	< 6	3.3	30	15	8.3	3.8	> 100	Unstable	100	2243	0.03	3.8	1.22	0.04	79	74	24	AUC(0-inf) [37]: 1.5 µM·h; half-life [38]: 0.62 h; clearance [39]: 86 mL/min/kg; Vd [40]: 5.3 L/kg; Vd [41]: 1.4 L/kg; clearance [42]: 46.2 mL/min/kg; blood plasma ratio at 24 h [43]: 1.5; AUC(0-inf) [44]: 1.6 µM·h; Vd [45]: 2 L/kg; clearance [46]: 59 mL/min/kg; blood plasma ratio at 24 h [47]: 1.8; Drug metabolism [48]: Metabolite_Detected; CL renal at 24 h [49]: 0.2 mL/min/kg; half-life [50]: 3.2 h; clearance [51]: 83.5 mL/min/kg; Vd [52]: 2.9 L/kg; dose excreted at 24 h [53]: 0.5%; solubility kinetic (physchem [36]): 50 µg/mL (≈ 160 µM)
